Measured values taken from ChEMBL document CHEMBL3885881, “DrugMatrix”.

Organism: Rattus norvegicus
Assay: DrugMatrix - Regimen: Daily Repeat
Assay type: toxicity, organism-based, Sprague-Dawley
Design: regimen Daily Repeat, gender Male, age 6-8 weeks
Details: in vivo, po, route oral GAVAGE, vehicle 100 % WATER; for NUCLEATED RED BLOOD CELLS / PLATELET COUNT / ABSOLUTE BASOPHIL / ABSOLUTE EOSINOPHIL / ABSOLUTE LYMPHOCYTE / ABSOLUTE MONOCYTE / ABSOLUTE SEGMENTED NEUTROPHIL / BASOPHIL / EOSINOPHIL / ERYTHROCYTE COUNT / HEMATOCRIT / LEUKOCYTE COUNT / LYMPHOCYTE / MEAN CORPUSCULAR HEMOGLOBIN / MEAN CORPUSCULAR HEMOGLOBIN CONCENTRATION / MEAN CORPUSCULAR VOLUME / MONOCYTE / NEUTROPHIL: tissue Blood; for ALANINE AMINOTRANSFERASE / ALBUMIN / ALKALINE PHOSPHATASE / ASPARTATE AMINOTRANSFERASE / BLOOD UREA NITROGEN / CARBON DIOXIDE / CHLORIDE / CHOLESTEROL / CREATINE PHOSPHOKINASE / CREATININE / LIPASE / POTASSIUM / TOTAL BILIRUBIN / TOTAL PROTEIN: tissue Plasma
[1] = 44 mg/kg, 120 h, dose level Low, time 5 day
[2] = 600 mg/kg, 72 h, dose level M1, time 3 day
[3] = 600 mg/kg, 120 h, dose level M1, time 5 day
[4] = 1200 mg/kg, 72 h, dose level High, time 3 day

SMILES: NC(=O)c1ncn([C@@H]2O[C@H](CO)[C@@H](O)[C@H]2O)n1 [RIBAVIRIN]
- NUCLEATED RED BLOOD CELLS [1]: 0 /100WBC
- PLATELET COUNT [1]: 1248.67 x10E3/uL
- ALANINE AMINOTRANSFERASE [1]: 43 u/L
- ALBUMIN [1]: 4.37 G/DL
- ALKALINE PHOSPHATASE [1]: 347 u/L
- ASPARTATE AMINOTRANSFERASE [1]: 75.33 u/L
- BLOOD UREA NITROGEN [1]: 13.67 mg/dL
- CARBON DIOXIDE [1]: 26 mmol/L
- CHLORIDE [1]: 102 MEQ/L
- CHOLESTEROL [1]: 63 mg/dL
- CREATINE PHOSPHOKINASE [1]: 230.67 u/L
- CREATININE [1]: 0.16 mg/dL
- LIPASE [1]: 8 u/L
- POTASSIUM [1]: 6.69 MEQ/L
- TOTAL BILIRUBIN [1]: 0.2 mg/dL
- TOTAL PROTEIN [1]: 6 G/DL
- ABSOLUTE BASOPHIL [2]: 0 CELLS/uL
- ABSOLUTE EOSINOPHIL [2]: 216 CELLS/uL
- ABSOLUTE LYMPHOCYTE [2]: 9535 CELLS/uL
- ABSOLUTE MONOCYTE [2]: 0 CELLS/uL
- ABSOLUTE SEGMENTED NEUTROPHIL [2]: 1715.67 CELLS/uL
- BASOPHIL [2]: 0%
- EOSINOPHIL [2]: 2%
- ERYTHROCYTE COUNT [2]: 6.28 x10E6/uL
- HEMATOCRIT [2]: 39.7%
- LEUKOCYTE COUNT [2]: 11.47 x10E3/uL
- LYMPHOCYTE [2]: 82.67%
- MEAN CORPUSCULAR HEMOGLOBIN [2]: 23.53 pg
- MEAN CORPUSCULAR HEMOGLOBIN CONCENTRATION [2]: 37.3 G/DL
- MEAN CORPUSCULAR VOLUME [2]: 63.2 fL
- MONOCYTE [2]: 0%
- NEUTROPHIL [2]: 15.33%
- NUCLEATED RED BLOOD CELLS [2]: 0 /100WBC
- PLATELET COUNT [2]: 1269.33 x10E3/uL
- ALANINE AMINOTRANSFERASE [2]: 185 u/L
- ALBUMIN [2]: 3.7 G/DL
- ALKALINE PHOSPHATASE [2]: 293.33 u/L
- ASPARTATE AMINOTRANSFERASE [2]: 480 u/L
- BLOOD UREA NITROGEN [2]: 16.33 mg/dL
- CARBON DIOXIDE [2]: 16 mmol/L
- CHLORIDE [2]: 104.33 MEQ/L
- CHOLESTEROL [2]: 83 mg/dL
- CREATINE PHOSPHOKINASE [2]: 1211.67 u/L
- CREATININE [2]: 0.22 mg/dL
- LIPASE [2]: 35 u/L
- POTASSIUM [2]: 7.1 MEQ/L
- TOTAL BILIRUBIN [2]: 0.2 mg/dL
- TOTAL PROTEIN [2]: 5.33 G/DL
- ABSOLUTE BASOPHIL [3]: 0 CELLS/uL
- ABSOLUTE EOSINOPHIL [3]: 179.33 CELLS/uL
- ABSOLUTE LYMPHOCYTE [3]: 10736 CELLS/uL
- ABSOLUTE MONOCYTE [3]: 0 CELLS/uL
- ABSOLUTE SEGMENTED NEUTROPHIL [3]: 2451.33 CELLS/uL
- BASOPHIL [3]: 0%
- EOSINOPHIL [3]: 1.33%
- ERYTHROCYTE COUNT [3]: 6.48 x10E6/uL
- HEMATOCRIT [3]: 40.57%
- LEUKOCYTE COUNT [3]: 13.37 x10E3/uL
- LYMPHOCYTE [3]: 81.33%
- MEAN CORPUSCULAR HEMOGLOBIN [3]: 23.67 pg
- MEAN CORPUSCULAR HEMOGLOBIN CONCENTRATION [3]: 37.87 G/DL
- MEAN CORPUSCULAR VOLUME [3]: 62.53 fL
- MONOCYTE [3]: 0%
- NEUTROPHIL [3]: 17.33%
- NUCLEATED RED BLOOD CELLS [3]: 0.33 /100WBC
- PLATELET COUNT [3]: 1066.33 x10E3/uL
- ALANINE AMINOTRANSFERASE [3]: 34 u/L
- ALBUMIN [3]: 3.63 G/DL
- ALKALINE PHOSPHATASE [3]: 197 u/L
- ASPARTATE AMINOTRANSFERASE [3]: 117.33 u/L
- BLOOD UREA NITROGEN [3]: 15 mg/dL
- CARBON DIOXIDE [3]: 16 mmol/L
- CHLORIDE [3]: 107.67 MEQ/L
- CHOLESTEROL [3]: 65.67 mg/dL
- CREATINE PHOSPHOKINASE [3]: 1121 u/L
- CREATININE [3]: 0.19 mg/dL
- LIPASE [3]: 14.33 u/L
- POTASSIUM [3]: 7.12 MEQ/L
- TOTAL BILIRUBIN [3]: 0.13 mg/dL
- TOTAL PROTEIN [3]: 5.2 G/DL
- ABSOLUTE BASOPHIL [4]: 0 CELLS/uL
- ABSOLUTE EOSINOPHIL [4]: 0 CELLS/uL
- ABSOLUTE LYMPHOCYTE [4]: 6405 CELLS/uL
- ABSOLUTE MONOCYTE [4]: 112.67 CELLS/uL
- BASOPHIL [4]: 0%
- EOSINOPHIL [4]: 0%
- ERYTHROCYTE COUNT [4]: 6.37 x10E6/uL
- HEMATOCRIT [4]: 39.37%
- LEUKOCYTE COUNT [4]: 8 x10E3/uL
- LYMPHOCYTE [4]: 80%
- MEAN CORPUSCULAR HEMOGLOBIN [4]: 24.77 pg
- MEAN CORPUSCULAR HEMOGLOBIN CONCENTRATION [4]: 40.07 G/DL
- MEAN CORPUSCULAR VOLUME [4]: 61.7 fL
- MONOCYTE [4]: 1.33%
- NEUTROPHIL [4]: 18.67%
- NUCLEATED RED BLOOD CELLS [4]: 0 /100WBC
- PLATELET COUNT [4]: 1071 x10E3/uL
- ALANINE AMINOTRANSFERASE [4]: 55.67 u/L
- ALBUMIN [4]: 3.17 G/DL
- ALKALINE PHOSPHATASE [4]: 195.67 u/L
- ASPARTATE AMINOTRANSFERASE [4]: 225.67 u/L
- BLOOD UREA NITROGEN [4]: 13.33 mg/dL
- CARBON DIOXIDE [4]: 20 mmol/L
- CHLORIDE [4]: 113.33 MEQ/L
- CHOLESTEROL [4]: 88 mg/dL
- CREATINE PHOSPHOKINASE [4]: 1322.67 u/L
- CREATININE [4]: 0.12 mg/dL
- LIPASE [4]: 7.67 u/L
- POTASSIUM [4]: 7 MEQ/L
- TOTAL BILIRUBIN [4]: 0.2 mg/dL
- TOTAL PROTEIN [4]: 4.47 G/DL
